{"source": "patent US8946383B2", "about": "“Obtaining cocoa extracts rich in bioactive peptides with ACE and PEP enzyme inhibitory activity” (Naturex, priority 2008, dated 2015)", "test_system": "CL4176 transgenic strain of C. elegans", "experiment": "Paralysis assay after induction of Ab peptide expression in C. elegans", "type": "in vivo, Caenorhabditis elegans", "details": "third day after inducing Ab peptide expression at 23° C.; 100 μl of fraction per plate; ZPP 0.1 mM", "protocol": "An oxidative stress assay using the CL4176 transgenic strain of C. elegans was carried out, characterized by expressing the human amyloid beta-peptide (Abl-42) after temperature induction.\nPrior data in the literature indicate that the formation of amyloid beta-peptide plaques is preceded by oxidative stress (Drake et al, “Oxidative stress precedes fibrillar deposition of Alzheimer's disease amyloid beta-peptide (1-42) in a transgenic Caenorhabditis elegans model” Neurobiol Aging 2003, 24(3):415-20). Therefore, it is interesting to evaluate if the hypothetical reduction of fibrillar deposition of Ab peptides in the neurons produced by the action of a molecule or compound gives rise to greater resistance against oxidative stress treatments. Furthermore, the expression of said peptide in these transgenic animals produces a paralysis that can be evaluated after adding the molecule or compound of interest.\nTo carry out the experiment, worms of the CL4176 strain having a synchronized age by means of plate cultivation of NG at 16° C. were obtained. The eggs were collected in NG plates which contained 100 μl of each peptide fraction (F11, F12, F14 and F18). […] For the first 3 days after induction, the number of worms paralyzed in each assayed condition was analyzed. […] The plates were incubated at 23° C. and after 5 hours the total number of worms that survived treatment were counted.", "note": "Where a SMILES comes first, the peptide text is derived from it. The star is where a group is joined. Cbz = O=C(OCc1ccccc1)*"}
{"compound": "O=C[C@@H]1CCCN1C(=O)[C@@H]1CCCN1C(=O)OCc1ccccc1", "note": "[Z-prolyl prolinal] (Cbz-Pro-Pro-aldehyde)", "values": [{"measurement": "percentage of non-paralyzed worms", "value": 99.44, "unit": "%"}]}
